From article PMC11938014, “Development and Application of Small Molecule–Peptide Conjugates as Cathepsin K-Specific Covalent Irreversible Inhibitors in Human Osteoclast and Lung Cancer” (JACS Au, 2025)
Where two headings read alike, the source gives them in different places.

Assays:
[1] = target: T1, Recombinant human cathepsin B (Homo sapiens, UniProt P07858); experiment: Recombinant cathepsin inhibition, gel-based competition with GB123 probe; type: biochemical; conditions: Table S2; three independent competition gel-based experiments; read-out: CTSB (IC50)
T1 construct: made in house
Experimental: (§1) In-gel fluorescence analysis was used to detect the residual activity of the cathepsins by applying pan-cathepsin probe GB123 to detect the stable enzyme–probe complex. This approach is used for testing inhibition and selectivity.[37],[41]
(§2) Recombinant human cathepsin L (0.5 μM), cathepsin B (0.5 μM), cathepsin K (0.5 μM), and cathepsin S (0.5 μM) were pretreated with different concentrations of inhibitors (GD compounds, odanacatib) for 1 h in reaction buffer (50 mM acetate, 2 mM dithiothreitol (DTT), and 5 mM MgCl2, pH 5.5) at 37 °C. GB123 (1 μM) was added and incubated with samples for 60 min at 37 °C.[37],[41] The reaction was stopped by the addition of sample buffer 4× (40% glycerol, 0.2 M Tris/HCl pH 6.8, 20% β-mercaptoethanol, 12% SDS, and 0.4 mg/mL bromophenol blue). Samples were then boiled, separated on a 12.5% SDS gel, and scanned for fluorescence by a Typhoon scanner FLA 9500 at excitation and emission wavelengths of 635 and 670 nm for GB123.
(§3) graphs were generated in GraphPad Prism software.

[2] = target: T2, Recombinant human cathepsin K (Homo sapiens, UniProt P43235); experiment: as above; type: biochemical; conditions: for concentration at which significant CTSK inhibition starts: Figure S5, recombinant CTSK
T2 construct: made in house
T2 sequence (P43235 115-329): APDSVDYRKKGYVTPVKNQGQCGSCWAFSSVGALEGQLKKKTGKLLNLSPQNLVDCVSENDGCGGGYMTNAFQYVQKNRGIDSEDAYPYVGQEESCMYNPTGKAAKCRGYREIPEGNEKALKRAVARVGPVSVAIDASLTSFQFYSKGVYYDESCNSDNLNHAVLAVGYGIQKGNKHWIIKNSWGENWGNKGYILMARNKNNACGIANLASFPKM
Experimental: as §1, §2, §3

[3] = target: T3, Recombinant human cathepsin L (Homo sapiens, UniProt P07711); experiment: as above; type: biochemical; conditions: Table S2; three independent competition gel-based experiments; read-out: CTSL (IC50)
T3 construct: made in house
T3 sequence (P07711 114-333): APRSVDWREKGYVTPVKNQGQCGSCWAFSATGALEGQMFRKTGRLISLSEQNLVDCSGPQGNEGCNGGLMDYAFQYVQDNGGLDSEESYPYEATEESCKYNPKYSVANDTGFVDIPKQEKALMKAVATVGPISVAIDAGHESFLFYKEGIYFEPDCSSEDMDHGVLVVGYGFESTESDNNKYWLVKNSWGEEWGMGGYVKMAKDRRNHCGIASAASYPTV
Experimental: as §1, §2, §3

[4] = target: T4, CTSK (Homo sapiens, UniProt P43235); experiment: Kinetic evaluation of recombinant cathepsin inhibition, fluorogenic substrate Z-FR-AMC; type: biochemical; conditions: for Ki: irreversible inhibitors
T4 construct: made in house
T4 sequence (P43235 115-329): T2 sequence (P43235 115-329)
Experimental: (§4) Cathepsin (0.4 nM, CatK) or 5 nM (CatS, CatB, and CatL) were each mixed with inhibitors before adding the fluorogenic substrate. The proteases were then reacted with their substrates, Z-RR-AMC (CatL) or Z-FR-AMC (CatS, CatB, and CatK), for 30 min at 37 °C in the phosphate buffer (100 mM Na2HPO4/NaH2PO4, 50 mM NaCl, 5 mM DTT, 0.1% PEG-6000, at pH 6). Reactions were done in 96-well black flat-bottom microplates (Greiner, Germany); fluorescence (Ex/Em 370 and 460 nm) was measured by a Tecan INFINITE M1000 pro plate reader (Tecan, Switzerland) in the presence of inhibitors or vehicle. For irreversible inhibitors, reaction data were analyzed by using the one-phase association formula in GraphPad Prism 9 software: Y = Y0 + (plateau – Y0) × (1 – exp(−K × X)), where Y0 and Y denote the fluorescence signals at times 0 and t, respectively, K represents the observed reaction rate kobs, and X signifies the […]. The inactivation rates at each inhibitor concentration were determined by subtracting the inactivation observed in the control sample: kobs – kctrl. The maximum inactivation rate (kinact) was derived as the asymptote from the equation Y = kinact × X/(Ki^app + X), where X represents the inhibitor concentration, Y is the observed inactivation rate for each X, and Ki^app is the apparent inhibition constant. Ki values were derived from IC50 or Ki^app using the equations Ki = Ki^app/(1 + […]) and IC50 = E0/2 + Ki^app, where Km represents the Michaelis–Menten constant, S denotes substrate concentration, and E0 indicates cathepsin concentration. The maximum inhibitor dose in the experiment was 50 μM. Measurements were conducted in multiple independent duplicates. Average values are listed.

[5] = target: T5, CTSS (Homo sapiens, UniProt P25774); experiment: as above; type: biochemical
T5 construct: made in house
T5 sequence (P25774 115-331): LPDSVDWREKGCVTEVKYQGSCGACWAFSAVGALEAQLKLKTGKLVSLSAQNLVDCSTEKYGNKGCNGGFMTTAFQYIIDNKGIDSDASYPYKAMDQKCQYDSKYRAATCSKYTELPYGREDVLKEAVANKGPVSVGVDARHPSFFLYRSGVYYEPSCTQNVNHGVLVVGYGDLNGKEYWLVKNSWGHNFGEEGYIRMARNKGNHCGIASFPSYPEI
Experimental: as §4

[6] = target: T6, endogenous matured CTSK in intact U2-OS and U-87 MG cells (Homo sapiens, UniProt P43235); experiment: Competition assay in intact cells, GB123 labeling; type: cell-based; conditions: escalating doses
T6 construct: endogenous in cells; host or cells: U2-OS and U-87 MG
T6 sequence (P43235 115-329): T2 sequence (P43235 115-329)
Experimental: Two cell lines, human osteosarcoma U2-OS and human glioblastoma U-87 MG, that naturally express CTSK along with other lysosomal cathepsins, were chosen to evaluate the inhibitors’ potency and selectivity.[43],[44] First, the intact cells were incubated for various durations with escalating doses of the inhibitors, and the ODN was used as a control. The residual cathepsin activity in the cells was detected by adding a pan-cathepsin ABP, GB123, after which the cells were lysed. The probe-labeled enzymes were then separated and visualized using fluorescent SDS-PAGE (Figures 5a,b and S7).[45] In both cells, the activity of several cathepsins was detected, while the fluorescent band at approximately 25 kDa was correlated to CTSK by immunoblotting (shown below in Figure 5a, b). The identity of each labeled band was detected by immunoblotting (Figure S7).[45] A selective dose-dependent suppression of CTSK activity was obtained in a range of inhibitor concentrations.
Figure 5 Direct inhibition of endogenous matured CTSK in intact U2-OS and U-87 MG cells. (a) Intact U2-OS cells were treated with DMSO, ODN, or increasing concentrations of the inhibitors GD20 or GD38 in their culture medium for 2 h. Cells were then treated with GB123 (5 μM) for 2 h, lysed, and separated by SDS-PAGE, followed by fluorescent scanning of the gel using a Typhoon scanner at 635/670 nm. An immunoblot of CTSK of the same gel is presented below. Different cathepsins are marked by colored arrowheads; a red arrowhead marks mature CTSK. s. ch. = single chain, h. ch. = heavy chain.[45] (b) Intact U-87 MG cells were treated with the inhibitor, followed by GB123, as described in panel (a).
U-87 MG and U2-0S cells (5 × 10^5 cells/well) were seeded in a six-well plate 1 day before treatment. […] Proteins were quantified by bicinchoninic acid (BCA, Thermo Scientific); an equal quantity of proteins was prepared for all samples, and after the addition of sample buffer, the lysates were boiled for 10 min, centrifuged, and separated by 12.5% SDS-PAGE. […]

[7] = Figure 4b IC50 curves, recombinant CTSK 0.5 μM, read-out: IC50 for inhibiting CTSK activity

Row | SMILES | IC50 [1] | IC50 [2, 7] | concentration at which significant CTSK inhibition starts [2] | IC50 ([2]; Table S2, three independent competition gel-based experiments, read-out: CTSK (IC50)) | IC50 [3] | kinact [4] | kinact/KI [4] | type of inhibition, CTSK [4] | Ki [4] | kinact [5] | kinact/KI [5] | type of inhibition, CTSS [5] | Ki ([5]; irreversible inhibitor) | inhibition of CTSK and selectivity over other cathepsins in intact cells, in words [6] | IC50 ([2]; Table S2, value in nM, read-out: CTSK (IC50)) | IC50 ([4]; reversible (tight binding)) | Ki ([5]; reversible) | Ki ([5]; maximum inhibitor dose 50 μM)
1 | CC(C)C[C@H](N[C@@H](c1ccc(-c2ccc(S(C)(=O)=O)cc2)cc1)C(F)(F)F)C(=O)NCC(=O)COC(=O)[C@@H]1CCCN1C(=O)[C@H](CCC(N)=O)NC(=O)OCC1c2ccccc2-c2ccccc21 [GD38] | > 10000 nM | 210 ± 27 nM | 0.062 µM | 200 ± 20 nM | > 10000 nM | 0.0032 s⁻¹ | 230000 M⁻¹ s⁻¹ | irreversible | 20.9 nM | 0.009 s⁻¹ | 178 M⁻¹ s⁻¹ | irreversible | 62000 nM | slightly reduced the activity of other cathepsins at high concentrations and longer incubation times |  |  |  | 
2 | CC(C)(F)C[C@H](N[C@@H](c1ccc(-c2ccc(S(C)(=O)=O)cc2)cc1)C(F)(F)F)C(=O)NC1(C#N)CC1 [ODN, odanacatib, reference compound] | > 10000 nM |  |  |  | > 10000 nM |  |  | reversible (tight binding) |  |  |  | reversible |  | could not detect | 350 ± 0.05 nM | 0.942 nM | 136 nM | 
3 | CC(C)C[C@H](N[C@@H](c1ccc(-c2ccc(S(C)(=O)=O)cc2)cc1)C(F)(F)F)C(=O)NCC(=O)COC(=O)[C@@H]1CCCN1C(=O)[C@H](CC(C)C)NC(=O)OCC1c2ccccc2-c2ccccc21 [GD20] | > 10000 nM | 460 ± 77 nM | 0.25 µM |  | > 10000 nM | 0.0026 s⁻¹ | 232000 M⁻¹ s⁻¹ | irreversible | 13 nM |  |  |  |  | very selective at all concentrations tested |  |  |  | > 50000 nM
